Experiments:
[1] = test system: Candida albicans IHEM 10284 - ATCC 24433; test: Anti-fungal activity, Bioscreen C growth curve: Candida albicans (yeast); assay type: cell-based; settings: Candida albicans, ATCC24433; 25 PPM; 35° C., 24 hours; negative control = 100; read-out: % of growth at a dose of 25 PPM compared to the negative control, Candida albicans IHEM 10284 - ATCC 24433
Experimental: (§1) For the determination of the anti-bacterial and anti-fungal activity the Bioscreen C Analyser Labsystems, Finland, was used. This is an automated reader-incubator. It measures growth continuously by vertical photometry (optical density), processes the data and provides a print out of the results. The area under the growth curve is automatically determined via the Biolink software.
The inoculum size of the yeast is standardized to 0.5-2.5×10^3 CFU/ml.
(§2) For bacteria, the 100-honey-well plates containing test chemical, Mueller-Hinton broth and inoculum (=sample) are incubated at 35° C. for 16 hours. Also wells without inoculum are incubated (=blanco). Yeasts are incubated 35° C. for 24 hours in RPMI 1640+MOPS buffer at 165 mM. Moulds also in RPMI 1640+MOPS buffer at 165 mM are incubated 25° C. for 5 days. All micro-organisms are screened against a known concentration of the reference antibiotics or antimycotics such as vancomycin, penicillin G, gentamicin or amphotericin B. The growth curve and the area under the growth curve can be determined using the Biolink software; this is illustrated in FIG. 1.
(§3) The area of the blanco is subtracted from the area of the sample, this number (delta) gives us an indication of the biological activity of the molecules tested and can be expressed as a % of growth at a specific dose compared to a negative control that has a value of 100, illustrated in FIG. 2. Screening of each dose of a specific compound is repeated 5 times. The dose used for all new molecules in all tests is 25 PPM or 25 μg/ml.
(§4) In Table 5 the anti-fungal activity is given for the new molecules. The micro-organisms used were Candida albicans (a typical yeast) and Microsporum gypseum (a typical mold).
as §1, with “Also for” for “For”, “the” for “the anti-bacterial and”, “Labsystems Oy, Finland” for “Labsystems, Finland,”, “used.” for “used. This is an automated reader-incubator.”
(§5) The inoculum size of the yeast is standardized to 0.5-2.5×10^3 CFU/ml. The inoculum size of the mould is standardized to 0.4-5.0×10^4 CFU/ml. Yeasts are incubated 35° C. for 24 hours in RPMI 1640+MOPS buffer at 165 mM. Moulds also in RPMI 1640+MOPS buffer at 165 mM are incubated 25° C. for 5 days.
(§6) As a control, all micro-organisms are screened against some reference antibiotics with known MIC. Screening of each dose of a specific compound is repeated 5 times.

[2] = test system: S. aureus ATTC29213 LMG10147; test: Anti-bacterial activity, Bioscreen C growth curve: S. aureus; assay type: cell-based; settings: Staphylococcus aureus, 35° C., 16 hours, negative control = 100, read-out: % of growth at 25 PPM compared to the negative control, S. aureus ATTC29213 LMG10147
Experimental: as §1
(§7) The inoculum size of the bacteria is standardized to approximately 5×10^5 CFU/ml.
as §2, §3
(§8) In Table 4 the results of the anti-bacterial activity is given for the new molecules. The micro-organisms used are Staphylococcus aureus, MRSA, VRE, Enterococcus faecalis, Salmonella typhimurium and Pseudomonas aeruginosa.

[3] = test system: P. aeruginosa ATCC27853 LMG16217; test: Anti-bacterial activity, Bioscreen C growth curve: P. aeruginosa; assay type: cell-based, Pseudomonas aeruginosa; settings: Pseudomonas aeruginosa; 25 PPM; 35° C., 16 hours; negative control = 100; read-out: % of growth at 25 PPM compared to the negative control, P. aeruginosa ATCC27853 LMG16217
Experimental: as §1, §7, §2, §3, §8

[4] = test system: Microsporum gypseum IHEM 3999 - ATCC 14683; test: Anti-fungal activity, Bioscreen C growth curve: Microsporum gypseum (mold); assay type: cell-based; settings: for activity at 25 ppm: Nannizzia gypsea, ATCC14683, 120 h, 25° C., 5 days, negative control = 100, read-out: % of growth at a dose of 25 PPM compared to the negative control, Microsporum gypseum IHEM 3999 - ATCC 14683
Experimental: as §1
The inoculum size of the mould is standardized to 0.4-5.0×10^4 CFU/ml.
as §2, §3, §4
as §1, with “Also for” for “For”, “the” for “the anti-bacterial and”, “Labsystems Oy, Finland” for “Labsystems, Finland,”, “used.” for “used. This is an automated reader-incubator.”
as §5, §6

[5] = test system: S. typhimurium ATTC700408; test: Anti-bacterial activity, Bioscreen C growth curve: S. typhimurium; assay type: cell-based; settings: Salmonella enterica, LMG16217 / TYPHIMURIUM, 35° C., 16 hours, negative control = 100, read-out: % of growth at 25 PPM compared to the negative control, S. typhimurium ATTC700408 LMG16217
Experimental: as §1, §7, §2, §3, §8

[6] = test system: E. faecalis ATTC29212 LMG 8222; test: Anti-bacterial activity, Bioscreen C growth curve: E. faecalis; assay type: cell-based; settings: Enterococcus faecalis, LMG8222, 35° C., 16 hours, negative control = 100, read-out: % of growth at 25 PPM compared to the negative control, E. faecalis ATTC29212 LMG 8222
Experimental: as §1, §7, §2, §3, §8

VRE ATCC700221 = test: Anti-bacterial activity, Bioscreen C growth curve: VRE; assay type: cell-based, vancomycin-resistant Enterococcus (VRE); settings: Enterococcus, 35° C., 16 hours, negative control = 100, read-out: % of growth at 25 PPM compared to the negative control, VRE ATCC700221
Experimental: as §1, §7, §2, §3, §8

MRSA ATCC33591 = test: Anti-bacterial activity, Bioscreen C growth curve: MRSA; assay type: cell-based, methicillin-resistant Staphylococcus aureus (MRSA); settings: for activity at 25 ppm: Staphylococcus aureus, ATCC 33591 / LMG10147 / MRSA, 35° C., 16 hours, negative control = 100, read-out: % of growth at 25 PPM compared to the negative control, MRSA ATCC33591 LMG10147
Experimental: as §1, §7, §2, §3, §8

SMILES | activity at 25 ppm [1] [%] | activity at 25 ppm [2] [%] | activity at 25 ppm [3] [%] | activity at 25 ppm [4] [%] | activity at 25 ppm [5] [%] | activity at 25 ppm [6] [%] | activity at 25 ppm (VRE ATCC700221) [%] | activity at 25 ppm (MRSA ATCC33591) [%] | anti-mold activity, in words ([4]; conclusion in text on Table 5) | anti-bacterial activity against gram-positive bacteria including MRSA, in words (MRSA ATCC33591; conclusion on Table 4)
O=C1CC/C=C/CCC(=O)O[C@H]2[C@H](OCc3ccccc3)[C@@H](OCc3ccccc3)[C@H](Sc3ccccc3)O[C@@H]2CO1 [KPE00001037] | 87.4 | 98.5 | 89.3 | 73 | 91 | 97.6 | 90 | 107 | – | –
CO[C@@H]1[C@@H](OC)[C@H](O)[C@@H](CO)O[C@H]1Sc1ccccc1 [KPE00001011] | 79.3 | 89 | 85 | 76.4 | 92.1 | 89 | 79 | 90.5 | – | –
CO[C@H]1[C@@H]2OC(=O)CC/C=C/CCC(=O)OC[C@H]2OC[C@@H]1OC [KPE00001006] | 93.1 | 94.7 | 87.3 | 62 | 94.6 | 92.5 | 96.5 | 99.7 | – | –
CO[C@@H]1[C@@H](OC)[C@H](Sc2ccccc2)O[C@@H]2COCCC/C=C\CCCO[C@@H]12 [KPE00001009.2] | 103 | 100 | 67.6 | 54 | 90.1 | 85.5 | 86.4 | 111 | best anti-mold activity | –
CO[C@@H]1[C@@H](OC)[C@H](Sc2ccccc2)O[C@@H]2COCCC/C=C/CCCO[C@@H]12 [KPE00001009.1] | 93.9 | 98.3 | 91.6 | 60 | 90.1 | 87.5 | 82 | 107 | – | –
CO[C@@H]1[C@@H](OC)[C@H](Sc2ccccc2)O[C@@H]2CNC(=O)CC/C=C/CCCO[C@@H]12 [KPE00001042] | 90.3 | 97 | 94.7 | 79 | 98 | 93.3 | 96 | 104 | – | –
CO[C@@H]1[C@@H](OC)[C@H](Sc2ccccc2)O[C@@H]2CNC(=O)CCC=CCCC(=O)O[C@@H]12 [KPE00001041] | 78.1 | 56.7 | 83.3 | 81 | 96.6 | 68.2 | 93 | 75.6 | – | good anti-bacterial activity
CO[C@@H]1[C@@H](OC)[C@H](Sc2ccccc2)O[C@@H]2COC(=O)CCC(O)C(O)CCC(=O)O[C@@H]12 (stereo partly shown) [KPE00001007] | 94.7 | 94.9 | 86.2 | 76 | 89.7 | 97 | 93 | 97.8 | – | –
CO[C@H]1[C@@H]2OC(=O)CCCCCCC(=O)OC[C@H]2OC[C@@H]1OC [KPE00001010] | 95.5 | 102 | 80.7 | 60 | 88.8 | 90.6 | 93 | 110 | – | –
CO[C@H]1[C@H](OC)[C@H](OC)COC/C=C/COC[C@H]2OC[C@H](OC)[C@@H](OC)[C@@H]2OC(=O)NC[C@@H]1OC [KPE00001056] | 101 | 105 | 106 | 77 | 93.7 | 111 | 91 | 113 | – | –

Reference: US7534871B2, “Preparation and use of carbohydrate-based bicyclic ring structures with antimicrobial and cytostatic activity” (Kemin Pharma B.V.B.A., priority 2004, dated 2009)
